Measurements taken from patent US9744177B2, “Treatment of male androgen deficiency symptoms or diseases with sex steroid precursor combined with SERM” (ENDORECHERCHE, INC., priority 2014, dated 2017).
Structures can show the parent of a compound that is named as a salt. Where two headings read alike, the source gives them in different places. Marks after values point to notes of the source that are not given here.

Assays:
[1] = system: ovariectomized female rats; assay: 26-week treatment of ovariectomized female rats: lumbar spine BMD, total fat, cholesterol, ALP (Example 3, experiment 2); format: in vivo, Sprague-Dawley rats; settings: OVX rats, 26 weeks, serum
Method: Ten to twelve week-old female Sprague-Dawley rats (Crl:CD(SD)Br) (Charles River Laboratory, St-Constant, Canada) weighing approximately 220-270 g at start of treatment were used. The animals were acclimatized to the environmental conditions (temperature: 22±3° C.; humidity: 50±20%; 12-h light-12-h dark cycles, lights on at 07:15 h) for at least 1 week before starting the experiments. The animals were housed individually and were allowed free access to tap water and a pelleted certified rodent feed (Lab Diet 5002, Ralston Purina, St-Louis, Mo.). […]
(§1) After 3 months (experiment 1) or 26 weeks (experiment 2) of treatment, individual rats under Isoflurane anesthesia had their whole body skeleton and lumbar spine scanned using dual energy x-ray absorptiometry (DEXA; QDR 4500A, Hologic, Waltham, Mass.) and a Regional High Resolution Scan software. The bone mineral density (BMD) of the lumbar spine (vertebrae L2 to L4) and the total body composition (fat percentage) were determined.
After 3 months (experiment 1) or 26 weeks (experiment 2) of treatment, blood samples were collected at the jugular vein from overnight fasted animals (under Isoflurane anesthesia). […] Serum cholesterol levels and alkaline phospatase activity (ALP) were determined using the Boehringer Mannheim Diagnostic Hitachi 911 Analyzer (Boehringer Mannheim Diagnostic Laboratory Systems).
Data are expressed as means±SEM. […]

[2] = system: estrone-stimulated uterine weight; assay: Antiestrogenic activity: estrone-stimulated uterine weight in ovariectomized mice; format: in vivo, BALB/c mice; settings: OVX mice + estrone; any dose used (1, 3 or 10 μg)
Method: (§2) Female BALB/c mice (BALB/cAnNCrlBR) weighing 18-20 g were obtained from Charles-River, Inc. (St-Constant, Quebec, Canada) and housed 5 per cage in a temperature (23±1° C.)- and light (12 h light/day, lights on at 7:15)-controlled environment. The mice were fed rodent chow and tap water ad libitum. The animals were ovariectomized (OVX) under Isoflurane anesthesia via bilateral flank incisions and randomly assigned to groups of 10 animals. Ten mice were kept intact as controls.
(§3) In the second experiment (Table 4), TSE 424 was administered orally by gavage once daily at doses of 1, 3, 10 or 30 μg/animal for 9 days, starting 2 days after ovariectomy. In both experiments, to evaluate the antiestrogenic activity, treatment with estrone (E1, 0.06 μg, s.c. injection, twice daily) was started 5 days post-ovariectomy and was administered for a 6 day-period. Compounds were dissolved in ethanol (4% final concentration) and administered in 0.4% methylcellulose. Mice in the intact and OVX control groups received the vehicle alone (4% ETOH-0.4% methylcellulose) during the 9-day period. The animals were killed by exsanguination at the abdominal aorta on the 11th morning following ovariectomy. The uteri and vagina were rapidly dissected, weighed, and kept in 10% buffered formalin for further histologic examination.

ovariectomized mice = assay: Estrogenic activity: uterine and vaginal weight in ovariectomized mice, compounds alone; format: in vivo, BALB/c mice; settings: OVX mice, no estrone; daily oral 1 μg and 10 μg
Method: as §2, §3

[3] = system: ovariectomized female rats; assay: 5-week treatment of ovariectomized female rats with SERMs alone or with DHEA: BMD (Example 4); format: in vivo, Sprague-Dawley rats; settings: OVX rats, 5 weeks; SERMs 2.5 mg/kg oral, DHEA 80 mg/kg topical
Method: (§4) Ten to twelve week-old female Sprague-Dawley rats (Crl:CD(SD)Br) (Charles River Laboratory, St-Constant, Canada) weighing approximately 220-270 g at start of treatment were used. The animals were acclimatized to the environmental conditions (temperature: 22±3° C.; humidity: 50±20%; 12-h light-12-h dark cycles, lights on at 07:15 h) for at least 1 week before starting the experiments. The animals were housed individually and were allowed free access to tap water and a pelleted certified rodent feed (Lab Diet 5002, Ralston Purina, St-Louis, Mo.). Experiments were conducted in an animal facility approved by the Canadian Council on Animal Care (CCAC) and the Association for Assessment and Accreditation of Laboratory Animal Care (AAALAC) in accordance with the CCAC Guide for Care and Use of Experimental Animals.
On Day 1 of the study, the animals of the appropriate groups were bilaterally ovariectomized (OVX) under isoflurane anesthesia. The DHEA was applied topically on the dorsal skin as a solution in 50% ethanol-50% propylene glycol while the tested SERMs were administered as suspension in 0.4% methylcellulose by oral gavage. Treatments were initiated on Day 2 of the study and were performed once daily during 5 weeks.
After 5 weeks of treatment, individual rats under Isoflurane anesthesia had their lumbar spine, femur and tibia scanned using dual energy x-ray absorptiometry (DEXA; QDR 4500A, Hologic, Waltham, Mass.) and a Regional High Resolution Scan software. The bone mineral density (BMD) of the lumbar spine (vertebrae L2 to L4), distal femoral metaphysis (DFM) and proximal tibial metaphysis (PTM) were determined.
Data are expressed as means±SEM. Statistical significance was determined according to the multiple-range test of Duncan-Kramer {Kramer, 1956 #37421.

[4] = 6 months; cited from earlier work
[5] = system: biochemical parameters of bone metabolism; assay: Treatment of rats with DHEA and EM-800 alone or in combination: biochemical parameters of bone metabolism, serum lipids; format: in vivo; settings: rat; for effect on serum cholesterol / effect on serum triglycerides: 9 months, DHEA 10 mg percutaneously, EM-800 75 μg orally, once daily (FIG. 10)
Description: Data are expressed as the means±SEM. **: p<0.01 experimental versus respective control.
It is thus important to analyze the changes in biochemical parameters of bone metabolism induced by various compounds and treatments in order to gain a better knowledge of their action (Table 2).
It is particularly important to indicate that the combination of DHEA and acolbifene exerted unexpected beneficial effects on important biochemical parameters of bone metabolism. […] Moreover, no effect of DHEA could be detected on daily urinary calcium or phosphorus excretion (Luo, Sourla et al. 1997). EM-800 (prodrug of acolbifene free salt) decreased the urinary hydroxyproline/creatinine ratio by 48% while, similarly to DHEA, no effect of EM 800 (prodrug of acolbifene, free salt) was seen on urinary calcium or phosphorus excretion. EM-800, moreover, had no effect on serum alkaline phosphatase activity, a marker of bone formation while DHEA increased the value of the parameter by about 75% (Luo, Sourla et al. 1997).

[6] = 50 mg daily, 6 months, cited from earlier work
ovariectomized rats = assay: 12-month treatment of ovariectomized rats with DHEA alone or with Flutamide or EM-800: bone histomorphometry, bone markers, serum lipids; format: in vivo, rat; settings: OVX rats
[7] = system: ovariectomized female rats; assay: 3-month treatment of ovariectomized female rats: lumbar spine BMD, total fat, cholesterol, ALP (Example 3, experiment 1); format: in vivo, Sprague-Dawley rats; settings: OVX rats, 3 months, serum
Method: as §4
On Day 1 of the study, the animals of the appropriate groups were bilaterally ovariectomized (OVX) under isoflurane anesthesia. The DHEA was applied topically on the dorsal skin as a solution in 50% ethanol-50% propylene glycol while the other tested compounds were administered as suspension in 0.4% methylcellulose by oral gavage. Treatments were initiated on Day 2 of the study and were performed once daily during 3 months.
as §1
After 3 months (experiment 1) or 26 weeks (experiment 2) of treatment, blood samples were collected at the jugular vein from overnight fasted animals (under Isoflurane anesthesia). Samples were processed for serum preparation and frozen at −80° C. until assay. Serum cholesterol levels and alkaline phospatase activity (ALP) were determined using the Boehringer Mannheim Diagnostic Hitachi 911 Analyzer (Boehringer Mannheim Diagnostic Laboratory Systems).
Data are expressed as means±SEM. Statistical significance was determined according to the multiple-range test of Duncan-Kramer (Kramer 1956).

[8] = system: human ZR-75-1 breast tumors; assay: ZR-75-1 tumor growth in ovariectomized nude mice in absence of estrone (agonistic effects); settings: no estrone, 200 μg daily, 161 days

Structure (SMILES): Oc1ccc2c(c1)CC[C@H](c1ccccc1)[C@@H]2c1ccc(OCCN2CCCC2)cc1 (racemic) [lasofoxifene, (−)-cis-(5R,6S)-6-phenyl-5-[4-(2-pyrrolidin-1-ylethoxy)phenyl]-5,6,7,8-tetrahydronaphthalen-2-ol, D-(−)-tartrate salt]
- CHOLESTEROL [1]: 0.60 ± 0.02 mmol/L

Structure (SMILES): Oc1ccc2c(c1)CC[C@@H](c1ccccc1)[C@H]2c1ccc(OCCN2CCCC2)cc1 (single isomer, unassigned) [inactive enantiomer of lasofoxifene]
- inhibitory effect on estrone-stimulated uterine weight [2]: no inhibitory effect
- stimulatory effect on uterine weight (ovariectomized mice): no stimulatory effect
- stimulatory effect on vaginal weight (ovariectomized mice): no stimulatory effect

Structure (SMILES): C[C@]12CC[C@H](O)CC1=CC[C@@H]1[C@@H]2CC[C@]2(C)C(=O)CC[C@@H]12 [DHEA, dehydroepiandrosterone]
- DISTAL FEMORAL METAPHYSIS (DFM) BMD [3]: 0.2934 ± 0.0046 g/cm^2
- DISTAL FEMORAL METAPHYSIS (DFM) Prevention of Bone Loss [3]: 71%
- LUMBAR SPINE (L2-L4) BMD [3]: 0.2144 ± 0.0028 g/cm^2
- LUMBAR SPINE (L2-L4) Prevention of Bone Loss [3]: 44%
- PROXIMAL TIBIAL METAPHYSIS (PFM) BMD [3]: 0.2672 ± 0.0041 g/cm^2
- PROXIMAL TIBIAL METAPHYSIS (PFM) Prevention of Bone Loss [3]: 42%
- decrease of total body fat mass [4]: 1.4 kg
- increase of fat-free mass [4]: 0.9 kg
- effect on serum cholesterol [5]: no effect
- effect on serum triglycerides [5]: inhibitory effect
- decrease of responsiveness of serum insulin to the glucose tolerance test [6]: 13%
- improvement in the insulin sensitivity index [6]: 34%
- decrease of abdominal subcutaneous fat ([6]; both women and men): 6%
- decrease of abdominal visceral fat ([6]; men 65 to 78 years): 7.4%
- decrease of abdominal visceral fat ([6]; women 65 to 78 years): 10.2%
- increase in trabecular bone number compared to ovariectomized controls (ovariectomized rats): 137%
- reduction (inhibitory effect) of serum cholesterol (ovariectomized rats): 22%
- trabecular bone number (ovariectomized rats): 1.27±0.1 per mm
- trabecular bone volume of the tibia (ovariectomized rats): 11.9±0.6%
- Alkaline phosphatase (ovariectomized rats; serum): 201±25 IU/L
- CHOLESTEROL (ovariectomized rats; serum): 1.78 ± 0.16 mmol/L
- Triglycerides (ovariectomized rats; serum): 0.8 ± 0.1 mmol/L
- OH-proline/creatinine (ovariectomized rats; urine): 7.3±1.0 μmol/mmol

Structure (SMILES): C[C@]12CC[C@@H]3c4ccc(O)cc4CC[C@H]3[C@@H]1CC[C@@H]2O [E2, 17β-estradiol]
- ALP [7]: 59 ± 4 IU/L

Structure (SMILES): CC1=C(c2ccc(OC(=O)C(C)(C)C)cc2)[C@H](c2ccc(OCCN3CCCCC3)cc2)Oc2cc(OC(=O)C(C)(C)C)ccc21 [EM-800, (S)-(+)-4-[7-(2,2-dimethyl-1-oxopropoxy)-4-methyl-2-[4-[2-(1-piperidinyl)-ethoxy]phenyl]-2H-1-benzopyran-3-yl]-phenyl 2,2-dimethylpropanoate]
- effect on serum cholesterol [5]: decreases
- effect on serum triglycerides [5]: decreases
- URINE HP/Cr (hydroxyproline/creatinine ratio) ([5]; DHEA 10 mg, EM-800 75 μg): 6.81 ± 0.84** μmol/mmol

Structure (SMILES): CC/C(=C(\c1ccccc1)c1ccc(/C=C/C(=O)O)cc1)c1ccccc1 [GW 5638]
- effect of compound alone on ZR-75-1 tumor size compared to OVX control [8]: did not significantly change
- ALP [7]: 72 ± 6 IU/L

Structure (SMILES): CC/C(=C(/c1ccc(OCCN(C)C)cc1)c1cccc(O)c1)c1ccccc1 [droloxifene, (E)-3-[1-[4-[2-(Dimethylamino)ethoxy]phenyl]-2-phenyl-1-butenyl]phenol]
- effect of compound alone on ZR-75-1 tumor size compared to OVX control [8]: did not significantly change

Structure (SMILES): Cl.O=C(c1ccc(OCCN2CCCCC2)cc1)c1c(-c2ccc(O)cc2)sc2cc(O)ccc12 [raloxifene, [2-(4-hydroxyphenyl)-6-hydroxybenzo[b]thien-3-yl][4-[2-(1-piperidinyl)ethoxy]phenyl]-methanone hydrochloride]
- effect of compound alone on ZR-75-1 tumor size compared to OVX control [8]: did not significantly change

Structure (SMILES): CC/C(=C(\c1ccccc1)c1ccc(OCCN(C)C)cc1)c1ccccc1 [tamoxifen, (Z)-2-[4-(1,2-diphenyl-1-butenyl)phenoxy]-N,N-dimethylethanamine]
- stimulatory effect on tumor growth (FIG. 15) ([8]; OVX nude mice): approximately 100%

Structure (SMILES): CN(C)CCOc1ccc(/C(=C(/CCCl)c2ccccc2)c2ccccc2)cc1 [toremifene, (Z)-2-[4-(4-Chloro-1,2-diphenyl-1-butenyl)phenoxy]-N,N-dimethylethanamine]
- average tumor size increase over baseline ([8]; OVX nude mice): 86%
